{"source": "patent US8198273B2", "about": "“Compounds and methods for kinase modulation, and indications therefor” (Plexxikon Inc., priority 2009, dated 2012)", "key": {"CYP3A4(BQ)": {"molecular_target": "CYP3A4(BQ) (Homo sapiens, UniProt P08684)", "sequence (P08684 whole entry)": "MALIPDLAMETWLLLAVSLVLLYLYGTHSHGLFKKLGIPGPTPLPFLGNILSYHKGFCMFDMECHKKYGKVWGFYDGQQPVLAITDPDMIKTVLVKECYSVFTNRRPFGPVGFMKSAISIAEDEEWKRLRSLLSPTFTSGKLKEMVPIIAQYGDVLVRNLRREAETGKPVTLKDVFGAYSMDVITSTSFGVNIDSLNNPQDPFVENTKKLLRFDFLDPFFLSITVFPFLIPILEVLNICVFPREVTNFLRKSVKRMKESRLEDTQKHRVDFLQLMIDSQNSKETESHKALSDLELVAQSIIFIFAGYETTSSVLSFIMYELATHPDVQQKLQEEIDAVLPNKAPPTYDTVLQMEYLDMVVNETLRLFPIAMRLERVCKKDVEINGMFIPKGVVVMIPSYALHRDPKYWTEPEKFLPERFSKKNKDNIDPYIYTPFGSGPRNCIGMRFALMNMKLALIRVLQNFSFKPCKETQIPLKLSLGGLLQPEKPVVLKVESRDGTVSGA", "experiment": "CYP3A4(BQ) inhibition (fluorescent substrate)", "type": "in vitro ADME", "details": "read-out: Cyp IC50 3A4(BQ)", "method": "(§1) CYP (Cytochrome P450) enzymes are the major drug metabolizing enzymes present in the liver. The inhibition of CYP enzyme activity (IC50) for each of CYP1A2, CYP2C19, CYP2C9, CYP2D6, CYP3A4(BFC) and CYP3A4(BQ) is determined for compounds, where inhibition of metabolism of a known substrate leads to a decrease in the fluorescence of the metabolized product. The fluorescence of the product is monitored as a function of compound concentration. Compounds are dissolved in dimethyl sulfoxide to a concentration of 100 mM. These are diluted 1 μL into 82 μL of acetonitrile. […] These are then serially diluted 1:1 (160 μL to 160 μL co-factor mix) for a total of 10 points. A 10 μL aliquot of this final mixture is dispensed into 384 well assay plates and incubated for 10 minutes at 37° C. […] Assay plates are incubated at 37° C. […] The signal versus compound concentration is used to determine the IC50. The enzymes and substrates for this assay are obtained from BD Biosciences."}, "[1]": {"system": "A375 melanoma cells (B-Raf V600E)", "experiment": "A375 cell growth inhibition (ATPlite)", "type": "cell-based", "details": "Homo sapiens, A-375, 72 h; A375, 3 days incubation", "method": "(§2) Compounds are assessed in a variety of cell based assays. For example human cell lines with B-Raf V600E mutation (A375 melanoma, SKMEL3 melanoma, and COL0205 colon adenocarcinoma), as well as tumorigenic cell lines with wild-type B-RAF (SW620 colon adenocarcinoma) or with Ras mutations (SKMEL2 melanoma and IPC298 melanoma). Similar assays may be used to assess additional tumorigenic cell lines with Ras mutations, including, but not limited to, M202, M207, M243, M244, M296, S117, HCT116, HCT15, DLD1, MiaPaCa, A549, NCI-H23, NCI-H460, HOP62, MDA-MB231, Hs-578T, HL60, MOLT-4, and CCRF-CEM.\n(§3) On day 1, cells are counted, then centrifuged in a conical tube for 5 minutes at 1000 rpm. The supernatant is removed and cells are re-suspended as follows: • SW620 (ATCC catalog #CCL-27): resuspend in Leibovitz's L-15 medium, 2 mM L-glutamine, 10% fetal bovine serum to 6×10^4 cells/mL. • A375 (ATCC catalog #CRL-1619): resuspend in Dulbecco's modified Eagle's medium, 4 mM L-glutamine, 4.5 g/L D-glucose, 10% fetal bovine serum to 6×10^4 cells/mL. • COL0205 (ATCC catalog #CCL-222): resuspend in RPMI 1640, 2 mM L-glutamine, 1.5 g/L sodium bicarbonate, 4.5 g/L D-glucose, 10 mM HEPES, 1.0 mM sodium pyruvate, 10% fetal bovine serum to 6×10^4 cells/mL. • SKMEL2 (ATCC catalog #HTB-68): resuspend in Minimum Eagle essential medium, 2 mM L-glutamine, 1.5 g/L sodium bicarbonate, 0.1 mM non-essential amino acids, 1.0 mM sodium pyruvate, 10% fetal bovine serum to 6×10^4 cells/mL. • SKMEL3 (ATCC catalog #HTB-69): resuspend in McCoy's 5A medium, 1.5 mM L-glutamine, 15% fetal bovine serum to 6×10^4 cells/mL. • IPC298 (DSMZ catalog #ACC 251): resuspend in RPMI 1640, 2 mM L-glutamine, 10% fetal bovine serum to 6×10^4 cells/mL.\n(§4) The cells are plated, 50 μL in each well of a 96-well dish (Corning 3610) and incubated at 37° C. in 5% CO2 overnight, cells plated to a final concentration of cells as follows:\n(§5) On day 2, compound at a maximum concentration of 5 mM is serially diluted 1:3 for a total of 8 point titration with DMSO as a control. A 1 μL aliquot of each dilution point and control is added to 249 μL growth media and 50 μL is added to a well containing cells, providing 10 μM compound at the maximum concentration point. The cells are incubated for 3 days at 37° C. in 5% CO2.\n(§6) On day 5, ATPlite 1 step Luminescence Assay System (Perkin Elmer #6016739) is brought to room temperature along with the cell cultures. ATPlite is added 25 μL to each well, shake for 2 minutes, and the cells are incubated at room temperature for 10 minutes, then luminescence is read on Safire reader. The measured luminescence correlates directly with cell number, such that the reading as a function of compound concentration is used to determine the IC50 value.\n(§7) It is understood that the results of these assays may vary as assay conditions are varied. Inhibition levels determined under the conditions described herein represent a relative activity for the compounds tested under the specific conditions employed. The cell based assays are likely to show variability due to the complexity of the system and the sensitivity thereof to any changes in the assay conditions. […] Results for compounds that are tested and show substantially no inhibition below the highest tested concentration are represented as “-” in the tables below. In some instances, the compounds were not tested in all of the assays, or assay results were not valid, as indicated by NA in the tables below."}, "[2]": {"system": "SW620 colon adenocarcinoma cells (wild-type B-RAF)", "experiment": "SW620 cell growth inhibition (ATPlite)", "type": "cell-based", "details": "Homo sapiens, SW-620, 72 h; SW620, 3 days incubation", "method": "as §2, §3, §4, §5, §6, §7"}, "CYP3A4(BFC)": {"molecular_target": "CYP3A4(BFC) (Homo sapiens, UniProt P08684)", "sequence (P08684 whole entry)": "as above", "experiment": "CYP3A4(BFC) inhibition (fluorescent substrate)", "type": "in vitro ADME", "details": "read-out: Cyp IC50 3A4(BFC)", "method": "as §1"}, "[3]": {"system": "COLO205 colon adenocarcinoma cells (B-Raf V600E)", "experiment": "COLO205 cell growth inhibition (ATPlite)", "type": "cell-based", "details": "Homo sapiens, COLO 205, 72 h; COLO205, 3 days incubation", "method": "as §2, §3, §4, §5, §6, §7"}, "[4]": {"system": "SKMEL2 melanoma cells (Ras mutation)", "experiment": "SKMEL2 cell growth inhibition (ATPlite)", "type": "cell-based", "details": "Homo sapiens, SK-MEL-2, 72 h; SKMEL2, 3 days incubation", "method": "as §2, §3, §4\nSKMEL2: 2,000 cells per well.\nas §5, §6, §7"}, "[5]": {"experiment": "Relative solubility by turbidity in aqueous buffers of varying pH", "type": "physicochemical", "method": "As an indication of relative solubility, the turbidity of compounds in aqueous solutions is assessed. To assess possible compound properties in different physiological compartments, such as stomach, intestine, and blood, a series of aqueous buffers with varying pH is used. Thus each compound is diluted into four different physiologically relevant buffers and solution turbidity is measured by spectrophotometry.\nCompounds are dissolved at a concentration of 25 mM in dimethyl sulfoxide, then serially diluted 1:1 into a 96 well plate, diluting 10 times in pure dimethyl sulfoxide, with the final well of each row a dimethyl sulfoxide blank. In an assay plate, 99 μL of appropriate buffer is added to each well, and 1 μL of each sample dilution is added to the buffer, achieving a range of final total concentrations in aqueous solutions having different pH. The buffers used are Simulated Gastric Fluid (SGF-pH 1.5) 0.5M NaCl, pH 1.5; Simulated Intestinal fluid (SIF-pH 4.5 and pH 6.8) 0.05M NaH2PO4, pH 4.5 and 6.8; and Hepes Buffer (HEPES-pH 7.4) 10 mM HEPES, 150 mM NaCl, pH 7.4. Control compounds pyrene, estriol and propranolol HCl are also assessed. Plates are spun and then mixed for 1 minute, and the absorbance is read using a Tecan Safire II to read wavelengths in the visible range (490, 535, and 650 nm) at four locations per well, reflecting the degree of turbidity present. The average optical density for each wavelength in each well is graphed vs. compound concentration, and the concentration at which the curve crosses a threshold O.D. of 0.01 for each wavelength is reported as the endpoint turbidity assay result. The average of the three wavelengths is used to compare turbidity of compounds. Compounds are considered to have low solubility if the threshold concentration is <31.3 04, moderate solubility if the threshold concentration is 31.3 μM to 250 μM, and high solubility if the threshold concentration is >250 μM."}, "Colo205 xenograft": {"system": "Colo205 xenograft", "experiment": "Colo205 xenograft mouse model, tumor growth inhibition", "type": "in vivo", "details": "COLO 205, 336 h, female nu/nu mice, 10 mg/kg daily for fourteen days", "method": "Tumor growth is monitored to approximately 100 mg size, and mice are distributed to treatment groups such that the mean tumor burden within a group is within 10% of the overall mean tumor burden. […] Mice are observed daily, with tumor burden and body weights measured twice a week. Animals with tumor burden above 1500-2000 mg and any animals in moribund condition are euthanized. The average tumor growth of vehicle control group mice is compared to the average tumor growth of the test compound mice. Percent tumor growth inhibition is calculated as 100×[(tumor growth control-tumor growth test compound)/tumor growth control]."}}}
{"smiles": "O=C(c1c(F)ccc(NS(=O)(=O)c2cccnc2)c1F)c1c[nH]c2ncc(Cl)cc12", "note": "[P-2071, Pyridine-3-sulfonic acid [3-(5-chloro-1H-pyrrolo[2,3-b]pyridine-3-carbonyl)-2,4-difluoro-phenyl]-amide]", "values": [{"measurement": "IC50", "setting": "CYP3A4(BQ)", "value": "< 5", "unit": "µM"}, {"measurement": "IC50", "setting": "[1]", "value": "< 1", "unit": "µM"}, {"measurement": "IC50", "setting": "[2]", "value": "> 10", "unit": "µM"}, {"measurement": "IC50", "setting": "CYP3A4(BFC)", "value": "< 5", "unit": "µM"}, {"measurement": "IC50", "setting": "[3]", "value": "< 1", "unit": "µM"}, {"measurement": "IC50", "setting": "[4]", "value": "> 10", "unit": "µM"}, {"measurement": "turbidity threshold (L, M, H) 7.4", "setting": "[5]; HEPES pH 7.4", "value": "M (moderate solubility if the threshold concentration is 31.3 μM to 250 μM)"}, {"measurement": "turbidity threshold (L, M, H) 4.5", "setting": "[5]; SIF pH 4.5", "value": "M (moderate solubility if the threshold concentration is 31.3 μM to 250 μM)"}, {"measurement": "turbidity threshold (L, M, H) 6.8", "setting": "[5]; SIF pH 6.8", "value": "M (moderate solubility if the threshold concentration is 31.3 μM to 250 μM)"}, {"measurement": "turbidity threshold (L, M, H) 1.4", "setting": "[5]; buffer pH 1.4 (SGF)", "value": "M (moderate solubility if the threshold concentration is 31.3 μM to 250 μM)"}, {"measurement": "inhibition in vivo at 10 mg/kg", "setting": "Colo205 xenograft", "value": 59, "unit": "%"}]}
